Laboratory results taken from patent US20260144805A1, “CANNABIDIOL COMPOSITIONS FOR USE IN THE TREATMENT OF NEURODEGENERATIVE AND NEUROLOGICAL DISORDERS” (JAZZ PHARMACEUTICALS RESEARCH UK LIMITED, priority 2022, published 2026).

Key:
[1] = test system: valproic acid-induced autism spectrum disorder (ASD) mouse model; assay: Valproic acid-induced ASD model, bottle-brush test (irritability) (Example 6, Table P); format: in vivo; set-up: key: +: improvement; Ø: no change; −: not tested; conditions: 0.125 mg/kg I.P.
Excerpt: The main objective of the following study was to assess the effect of the drug substance (DS) of Example 1 in ameliorating autism-like behavior in valproic acid-induced autism spectrum disorder (ASD) mouse model (FIGS. 19A-B).

[2] = test system: rTg4510 mice; assay: Open Field (OF) test, locomotor activity in rTg4510 mouse model of Alzheimer's Disease (Example 2; DS = DS-C); format: in vivo; conditions: Week 31; for Locomotor activity totals, % vs Wild-type / Locomotor activity totals, % vs rTg4510 / Locomotor activity totals, Mean: Risperidone 0.125 mg/kg i.p.
Experimental: The aim of this study was to evaluate the efficacy of the present drug substance to modulate the agitation-like behaviours in the rTg4510 regulatable mouse model of Alzheimer's Disease (AD). Animals were tested in a behavioural assay, the Open Field (OF) test to measure locomotor activity (LMA). Activity was first assessed at a 21-week-old baseline to determine whether a hyperactive phenotype (to be used as a proxy for agitation) had developed and was further assessed at 2 subsequent ages in acute and chronic efficacy phases.
Ninety male rTg4510 (CC) mice and 15 wild-type (WW) (Tg(Camk2a-tTA)1Mmay Fgf14^Tg(tetO-MAPT*P301L)4510Kha/J, Jax strain #024854, licensed from the Mayo Clinic, USA) were split into 2 cohorts, 4 weeks apart in age; cohort 1 contained 53 mice (8 WW and 45 CC) and cohort 2 contained 52 mice (7 WW and 45 CC). Relative humidity was 55±15% throughout. Mice were housed in individually ventilated cages on a 12 h/12 h light/dark cycle (lights on at 07.00 h; illumination by red light during the dark phase), at an ambient temperature of 24±4° C. with free access to standard rodent maintenance diet and filtered water. Animals were allowed to acclimatise to the above conditions for 7-10 days prior to the study start. All housing groupings were preserved until the mice were approximately 5 months old, at which point they were singly housed.
Doxycycline administration: a subset of animals in cohort 2 (n=15) was administered 2× daily oral bolus doses of doxycycline hyclate (10 mg/kg p.o. in 5% glucose, Sigma Aldrich) at 13 weeks of age, followed by continuous exposure to normal lab chow containing 200 ppm doxycycline (Envigo Teklad 2018 TD.00502 no colourants, irradiated and vacuum-packed). All other animals received Envigo Teklad 2018 diet. All diet was provided ad libitum.
Following this regime, animals were evaluated in Open Field (OF) test, before being deeply anaesthetised at the end of the behavioural testing prior to biofluid sampling and tissue harvesting.
Specifically, the material was solubilised by the addition of 50 μL of 10% glacial acetic acid and making up to volume with 0.9% saline (Aquapharm, Animal Care, York, UK, Lot 21030311).
Drug Substance (DS): (i.e., DS-C, See Table B in Example 1) Dosing volume was 10 mL/kg and DS was formulated at the 150 mg/kg dose in a vehicle of ethanol: Kolliphor HS15: 0.9% saline (1:12:87, w/w/v) which were stored at room temperature and added at approximately 60° C. to form solutions which were subsequently stable at room temperature. All dosing formulations were protected from light whenever possible. Dosing solutions were made fresh on the day of dosing, with lower dose formulations being prepared by dilution from the 150 mg/kg dosing solution at room temperature.
Locomotor activity was assessed by OF test in the light phase of the light-dark cycle at weeks 21, 26 and 31. An automated beam break apparatus (40 cages) was used for the assessment of locomotor activity in rats and mice. Each cage had 4 beams; 1 ‘y’ and 3 ‘x’ which triggered a signal through capacitors when the beam was broken. Signals were collected by data loggers and processed accordingly. All animals were placed in the apparatus and spontaneous activity was assessed for a four-hour period between 0900 and 1300. Animals were then removed from the apparatus and returned to their home cages. LMA assessment was split over 2 consecutive days at each time point.
For locomotor data, a log (x+1) transformation was used. For weeks 21 & 26, means and SEMs were calculated from the transformed data. Analysis was by Friedman's two-way nonparametric ANOVA with treatment and test day as factors to compare each group to the WW animals, and (where appropriate) Doxycycline with the untreated rTg4510 group. For week 30, data excluding the WW and Doxycycline groups for each time period were analysed by robust regression model using M estimation, Huber weighting, using the default parameter c=1.345. […]

## Cc1nc2n(c(=O)c1CCN1CCC(c3noc4cc(F)ccc34)CC1)CCCC2 [Risperidone]
[1]; control beside DS
  Adult bottle brush irritability test: +
  Juvenile bottle brush irritability test: Ø
[1]; control beside sCBD
  Adult bottle brush irritability test: +
  Juvenile bottle brush irritability test: +
[1]; control beside sCBD-2
  Adult bottle brush irritability test: +
  Juvenile bottle brush irritability test: +
[2]; 0-30 minutes
  Locomotor activity totals, % vs Wild-type: 95.7%
  Locomotor activity totals, % vs rTg4510: 40.1%
  Locomotor activity totals, Mean: 525.99
[2]; 0-60 minutes
  Locomotor activity totals, % vs Wild-type: 135.0%
  Locomotor activity totals, % vs rTg4510: 49.4%
  Locomotor activity totals, Mean: 1313.59
[2]; 0-60 minutes, risperidone 0.125 mg/kg/d
  hyperlocomotion vs rTg4510(vehicle): significantly reversed
[2]; 30-60 minutes
  Locomotor activity totals, % vs Wild-type: 183.6%
  Locomotor activity totals, % vs rTg4510: 46.9%
  Locomotor activity totals, Mean: 641.92
[2]; 60-90 minutes
  Locomotor activity totals, % vs Wild-type: 104.9%
  Locomotor activity totals, % vs rTg4510: 24.1%
  Locomotor activity totals, Mean: 140.56
[2]; 60-120 minutes
  Locomotor activity totals, % vs Wild-type: 134.8%
  Locomotor activity totals, % vs rTg4510: 39.8%
  Locomotor activity totals, Mean: 384.49
[2]; 90-120 minutes
  Locomotor activity totals, % vs Wild-type: 241.3%
  Locomotor activity totals, % vs rTg4510: 79.0%
  Locomotor activity totals, Mean: 132.22
[2]; 120-150 minutes
  Locomotor activity totals, % vs Wild-type: 222.8%
  Locomotor activity totals, % vs rTg4510: 130.5%
  Locomotor activity totals, Mean: 210.31
[2]; 150-180 minutes
  Locomotor activity totals, % vs Wild-type: 399.5%
  Locomotor activity totals, % vs rTg4510: 103.1%
  Locomotor activity totals, Mean: 82.39
[2]; 180-210 minutes
  Locomotor activity totals, % vs Wild-type: 136.3%
  Locomotor activity totals, % vs rTg4510: 103.4%
  Locomotor activity totals, Mean: 27.84
[2]; 210-240 minutes
  Locomotor activity totals, % vs Wild-type: 37.5%
  Locomotor activity totals, % vs rTg4510: 56.3%
  Locomotor activity totals, Mean: 6.99
